Data taken from PubChem BioAssay AID2060912 (Molecular Pharmacology Branch, DTP, NCI, 2025).

Tested on: HUVEC/MSC spheroids viability
Test: Human HUVEC/MSC cell line growth inhibition [KRAS2];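 as to viability, T/C: percent of DMSO vehicle control luminescence so 100% = untreated viability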
Conditions: for IC50: curve of first compound; for viability, T/C: stronger effect = lower value
Method in brief: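 Spheroids of pooled-donor HUVEC and hMSC (passage ≤5) without tumour cells were treated with KRAS-pathway inhibitors alone and combined with targeted agents. Top concentration was at or near clinical Cmax, or 10 microM when Cmax was unknown, descending in half-log steps.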

[1] = second compound 0.00949 µM, first compound 0.0316 µM
[2] = second compound 0.00949 µM, first compound 0.1 µM
[3] = second compound 0.03 µM, first compound 0.0316 µM
[4] = second compound 0.03 µM, first compound 0.1 µM
[5] = second compound 0.0949 µM, first compound 0.0316 µM
[6] = second compound 0.0949 µM, first compound 0.1 µM
[7] = second compound 0.3 µM, first compound 0.0316 µM
[8] = second compound 0.3 µM, first compound 0.1 µM
[9] = second compound 0.949 µM, first compound 0.0316 µM
[10] = second compound 0.949 µM, first compound 0.1 µM
[11] = second compound 3 µM, first compound 0.0316 µM
[12] = second compound 3 µM, first compound 0.1 µM
[13] = second compound 0.00949 µM, first compound 0.316 µM
[14] = second compound 0.00949 µM, first compound 1 µM
[15] = second compound 0.00949 µM, first compound 3.16 µM
[16] = second compound 0.00949 µM, first compound 10 µM
[17] = second compound 0.03 µM, first compound 0.316 µM
[18] = second compound 0.03 µM, first compound 1 µM
[19] = second compound 0.03 µM, first compound 3.16 µM
[20] = second compound 0.03 µM, first compound 10 µM
[21] = second compound 0.0949 µM, first compound 0.316 µM
[22] = second compound 0.0949 µM, first compound 1 µM
[23] = second compound 0.0949 µM, first compound 3.16 µM
[24] = second compound 0.0949 µM, first compound 10 µM
[25] = second compound 0.3 µM, first compound 0.316 µM
[26] = second compound 0.3 µM, first compound 1 µM
[27] = second compound 0.3 µM, first compound 3.16 µM
[28] = second compound 0.3 µM, first compound 10 µM
[29] = second compound 0.949 µM, first compound 0.316 µM
[30] = second compound 0.949 µM, first compound 1 µM
[31] = second compound 0.949 µM, first compound 3.16 µM
[32] = second compound 0.949 µM, first compound 10 µM
[33] = second compound 3 µM, first compound 0.316 µM
[34] = second compound 3 µM, first compound 1 µM
[35] = second compound 3 µM, first compound 3.16 µM
[36] = second compound 3 µM, first compound 10 µM

For `CN(C)C/C=C/C(=O)Nc1cc2c(Nc3ccc(F)c(Cl)c3)ncnc2cc1O[C@H]1CCOC1` + C=CC(=O)N1CCN(c2nc(OCC3CCCN3C)nc3c2CCN(c2cccc4cccc(C)c24)C3)CC1CC#N, the IC50 (second compound 0.00949 µM) was greater than 0.1 µM, the IC50 (second compound 0.03 µM) was greater than 0.1 µM and the IC50 (second compound 0.0949 µM) was greater than 0.1 µM. It also gave an IC50 (second compound 0.3 µM) greater than 0.1 µM, an IC50 (second compound 0.949 µM) greater than 0.1 µM and an IC50 (second compound 3 µM) greater than 0.1 µM. For the same compound, the viability, T/C (second compound 0.00949 µM, first compound 0.000316 µM) was 79.2%, the viability, T/C (second compound 0.00949 µM, first compound 0.001 µM) was 95.1% and the viability, T/C (second compound 0.00949 µM, first compound 0.00316 µM) was 88.5%. For the same compound, the viability, T/C (second compound 0.00949 µM, first compound 0.01 µM) was 82.1%, the viability, T/C [1] was 67.7% and the viability, T/C [2] was 74.4%. For the same compound, the viability, T/C (second compound 0.03 µM, first compound 0.000316 µM) was 92.5%, the viability, T/C (second compound 0.03 µM, first compound 0.001 µM) was 92.5% and the viability, T/C (second compound 0.03 µM, first compound 0.00316 µM) was 90.8%. For the same compound, the viability, T/C (second compound 0.03 µM, first compound 0.01 µM) was 78.8%, the viability, T/C [3] was 88.4% and the viability, T/C [4] was 99.2%. For the same compound, the viability, T/C (second compound 0.0949 µM, first compound 0.000316 µM) was 85.7%, the viability, T/C (second compound 0.0949 µM, first compound 0.001 µM) was 84.9% and the viability, T/C (second compound 0.0949 µM, first compound 0.00316 µM) was 82.3%. It also gave a viability, T/C (second compound 0.0949 µM, first compound 0.01 µM) of 79.8%, a viability, T/C [5] of 82.9% and a viability, T/C [6] of 95.2%. For the same compound, the viability, T/C (second compound 0.3 µM, first compound 0.000316 µM) was 82.6%, the viability, T/C (second compound 0.3 µM, first compound 0.001 µM) was 84.5% and the viability, T/C (second compound 0.3 µM, first compound 0.00316 µM) was 76.1%. For the same compound, the viability, T/C (second compound 0.3 µM, first compound 0.01 µM) was 73.4%, the viability, T/C [7] was 80.4% and the viability, T/C [8] was 63%. It also gave a viability, T/C (second compound 0.949 µM, first compound 0.000316 µM) of 63.9%, a viability, T/C (second compound 0.949 µM, first compound 0.001 µM) of 69.8% and a viability, T/C (second compound 0.949 µM, first compound 0.00316 µM) of 72.3%. It also gave a viability, T/C (second compound 0.949 µM, first compound 0.01 µM) of 80%, a viability, T/C [9] of 72.5% and a viability, T/C [10] of 73%. It also gave a viability, T/C (second compound 3 µM, first compound 0.000316 µM) of 82.1%, a viability, T/C (second compound 3 µM, first compound 0.001 µM) of 90.3% and a viability, T/C (second compound 3 µM, first compound 0.00316 µM) of 82%. It also gave a viability, T/C (second compound 3 µM, first compound 0.01 µM) of 73.8%, a viability, T/C [11] of 79% and a viability, T/C [12] of 93.7%.

`COC(=O)c1ccc2c(C(=Nc3ccc(N(C)C(=O)CN4CCN(C)CC4)cc3)c3ccccc3)c(O)[nH]c2c1` + C=CC(=O)N1CCN(c2nc(OCC3CCCN3C)nc3c2CCN(c2cccc4cccc(C)c24)C3)CC1CC#N showed an IC50 (second compound 0.00949 µM) of 2.18 µM, an IC50 (second compound 0.03 µM) of 2.22 µM and an IC50 (second compound 0.0949 µM) of 2.91 µM. It also gave an IC50 (second compound 0.3 µM) of 2.81 µM, an IC50 (second compound 0.949 µM) of 1.64 µM and an IC50 (second compound 3 µM) of 0.894 µM. It also gave a viability, T/C [1] of 91.3%, a viability, T/C [2] of 82.5% and a viability, T/C [13] of 89.5%. The viability, T/C [14] was 57.8%, the viability, T/C [15] was 45.7% and the viability, T/C [16] was 0.43%. The viability, T/C [3] was 81.1%, the viability, T/C [4] was 102% and the viability, T/C [17] was 76.4%. The viability, T/C [18] was 52.6%, the viability, T/C [19] was 52.6% and the viability, T/C [20] was 0.35%. The viability, T/C [5] was 76%, the viability, T/C [6] was 78.3% and the viability, T/C [21] was 93.3%. It also gave a viability, T/C [22] of 68.1%, a viability, T/C [23] of 49.2% and a viability, T/C [24] of 0.37%. The viability, T/C [7] was 60.5%, the viability, T/C [8] was 78.7% and the viability, T/C [25] was 78.3%. The viability, T/C [26] was 70.3%, the viability, T/C [27] was 47.7% and the viability, T/C [28] was 0.35%. For the same compound, the viability, T/C [9] was 57.5%, the viability, T/C [10] was 73.2% and the viability, T/C [29] was 91.1%. The viability, T/C [30] was 55.5%, the viability, T/C [31] was 34.6% and the viability, T/C [32] was 0.31%. The viability, T/C [11] was 65.2%, the viability, T/C [12] was 96.5% and the viability, T/C [33] was 84.3%. The viability, T/C [34] was 46.6%, the viability, T/C [35] was 0.43% and the viability, T/C [36] was 0.33%.

In the case of `O=C(c1cc(Cc2n[nH]c(=O)c3ccccc23)ccc1F)N1CCN(C(=O)C2CC2)CC1` + C=CC(=O)N1CCN(c2nc(OCC3CCCN3C)nc3c2CCN(c2cccc4cccc(C)c24)C3)CC1CC#N, the IC50 (second compound 0.00949 µM) is reported as greater than 10 µM, the IC50 (second compound 0.03 µM) is reported as greater than 10 µM and the IC50 (second compound 0.0949 µM) is reported as greater than 10 µM. It also gave an IC50 (second compound 0.3 µM) greater than 10 µM, an IC50 (second compound 0.949 µM) greater than 10 µM and an IC50 (second compound 3 µM) greater than 10 µM. It also gave a viability, T/C [1] of 80.8%, a viability, T/C [2] of 101% and a viability, T/C [13] of 89.4%. For the same compound, the viability, T/C [14] was 82.3%, the viability, T/C [15] was 80.9% and the viability, T/C [16] was 112%. It also gave a viability, T/C [3] of 78.2%, a viability, T/C [4] of 96.2% and a viability, T/C [17] of 98.7%. The viability, T/C [18] was 81.2%, the viability, T/C [19] was 103% and the viability, T/C [20] was 83.7%. For the same compound, the viability, T/C [5] was 91.8%, the viability, T/C [6] was 87.8% and the viability, T/C [21] was 77.2%. It also gave a viability, T/C [22] of 101%, a viability, T/C [23] of 88.4% and a viability, T/C [24] of 100%. It also gave a viability, T/C [7] of 71%, a viability, T/C [8] of 91.9% and a viability, T/C [25] of 86.1%. The viability, T/C [26] was 73.7%, the viability, T/C [27] was 82.8% and the viability, T/C [28] was 81.8%. It also gave a viability, T/C [9] of 68.4%, a viability, T/C [10] of 84.9% and a viability, T/C [29] of 84.1%. It also gave a viability, T/C [30] of 88.8%, a viability, T/C [31] of 89.8% and a viability, T/C [32] of 85.2%. The viability, T/C [11] was 91.5%, the viability, T/C [12] was 79.5% and the viability, T/C [33] was 111%. The viability, T/C [34] was 102%, the viability, T/C [35] was 107% and the viability, T/C [36] was 89.7%.
